# Data published in patent US7834019B2, “Substituted pyrazolo[3,4-d]pyrimidinone derivatives” (Banyu Pharmaceutical Co., Ltd., priority 2006, dated 2010).
# System: Human non-small-cell lung cancer cells (NCI-H1299)
# Assay: Radiation (X-ray) sensitizing effect, DNA fragmentation (subG1, FACS) in NCI-H1299 cells
# Assay type: cell-based
# From the text: Pharmaceutical Test 5 (Method of Determining Drug Potency with Cells (Radiation (X-Ray) Sensitizing Effect))
# Fetal bovine serum (FBS) was gotten from Morgate; RPMI 1640 medium and 0.25% trypsin EDTA were from Invitrogen; cycle test plus DNA reagent kit was from Becton Dickinson; and nylon net filter was from Millipore.
# Human non-small-cell lung cancer cells (NCI-H1299) were gotten from ATCC.
# NCI-H1299 cells were suspended in 10% FBS-added RPMI 1640 medium, and the cell suspension was applied to a 6-well Nunclondelta-processed plastic plate bought from Nunc, in an amount of 100,000 cell/2 ml/well, and incubated overnight in 5% CO2-95% air at 37° C. Using Softex's M-150WE, the cells were irradiated with 5000 R X-rays, and then further incubated in 5% CO2-95% air at 37° C. for 16 hours. A test compound was stepwise diluted with DMSO, and applied to a plate with the X-ray-processed cells sowed thereon, in an amount of 2 μL. This was incubated in 5% CO2-95% air at 37° C. for 8 hours, and then the culture was partly taken out. 0.25% trypsin was added to the cells remaining on the plate, in an amount of 600 μL, and statically kept at room temperature to prepare a single cell suspension. […] Using Becton Dickinson's FACS Calibur, the DNA amount in each cell was quantitatively determined according to a FACS process, and the ratio of the cells having caused DNA fragmentation was determined.
structure (smiles),measurement,setting,value
"C=CCn1c(=O)c2cnc(Nc3ccc(N4CCN(C)CC4)cc3)nc2n1-c1cccc(C(C)(C)O)n1 [Example 53, 2-allyl-1-[6-(1-hydroxy-1-methylethyl)pyridin-2-yl]-6-{[4-(4-methylpiperazin-1-yl)phenyl]amino}-1,2-dihydro-3H-pyrazolo[3,4-d]pyrimidin-3-one]","DNA Fragmentation-Inducing Effect (H1299) (subG1, %)","X-ray (5000 R, 16 hours before) + compound for 8 hours",54.8%
same,"DNA Fragmentation-Inducing Effect (H1299) (subG1, %)","compound alone, without X-ray, 8 hours",3.9%
